Among the data in US20210298306A1, “PESTICIDALLY ACTIVE AZOLE-AMIDE COMPOUNDS” (SYNGENTA PARTICIPATIONS AG, priority 2018, published 2021) are melting point values, retold here.

As a reminder, the melting point is the temperature of the solid-liquid transition. In turn, `CC(NC(=O)c1cncc(OC(F)F)c1)c1ncnn1-c1ccccn1` (stereo not shown) [P23, 5-(difluoromethoxy)-N-[1-[2-(2-pyridyl)-1,2,4-triazol-3-yl]ethyl]pyridine-3-carboxamide] returned a melting point of 105 to 110 °C.
